Data as given in publication PMC9114115, “Property space mapping of Pseudomonas aeruginosa permeability to small molecules” (Scientific Reports, 2022).
Values joined by “and” are separate entries in the source; they are usually repeats but may differ in a detail not shown here. Equal values may be shown once. Where a name gives a salt, the structure may show the parent alone.

What was measured:
P. aeruginosa PAO1 cells = experiment: LC–MS quantification of intracellular accumulation, PAO1; details: 10-80 µM; for Concentration slopes of accumulation, PAO1_1 min: 1 min incubation; for Concentration slopes of accumulation, PAO1_40 min: 40 min incubation;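 on all read-outs here: slope of accumulation versus external concentration fitted as a line through zero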
Description: (§1) PAO1-Pore and PΔ3-Pore were grown at 37 °C overnight with shaking at 225 rpm in 50 mM MOPS-M9 (pH 7.2) Minimal Medium supplemented with 1% glycerol[42],[43].
(§2) The next day, cells were sub-cultured (1.5:100) in fresh MOPS-M9 medium and grown for 16 h. The cultures were then split into two flasks and one of them was induced with 0.1 mM IPTG. Cells incubated for additional 4 h until OD600 reached ~ 1.0 and harvested by centrifugation at 3,275xg for 20 min in RT, washed and concentrated 10X in the spent medium. Assays were performed in 96-well plates in a final volume of […]. Cells were incubated with 10, 20, 40, 80 µM of compounds and after 1- and 40-min incubation at RT, 100 µL cell aliquots were collected by vacuum filtration onto 1.0 µm Glass Fiber Type B filters. For no-cell controls, compounds were diluted to 10, 20, 40, 80 µM final concentration in the same medium, incubated for 1 min and 40 min and filtered onto the same plates. The cell loaded and cell-free filters were dried, removed from plates and placed into 100% methanol at -80 °C for at least 10 min. Filter-bound material was extracted by water bath sonication for 1 min. Cell and filter debris were separated by ultracentrifugation at 45,000 rpm (TLA55 rotor, Beckman) for 8 min at 16 °C and the pellet re-extracted with 80% methanol in water by sonication for 15 min followed by ultracentrifugation at the same conditions. Supernatants from two extractions were combined. For the compound quantification, 5 µL of solution was analyzed in triplicate.
(§3) Calibration curves for MS analyses of compounds were generated in the same experiment by mixing compound at increasing concentrations with the sonicated PAO1 cell extracts. […] Azithromycin was used as a positive control in all experiments.
(§4) Samples were processed in positive ion mode. An Eclipse plus C18 Rapid Resolution HD column (1.8 μm, 2.1 × 50 mm, Agilent, USA) was used for separation. The flow rate was 0.6 mL/min using the following gradient: 0 to 1 min (0- 20% ACN), 1 to 4 min (20- 80% ACN), 4 to 5.1 min (80–100% ACN), 5.1 to 6.30 (100% ACN). Solvents contained 0.1% formic acid to promote positive ion formation in the electrospray. […] Data were analyzed using Agilent Masshunter workstation quantitative analysis v. B.10 software.

[1] = test system: P. aeruginosa PAO1-Pore cells; experiment: LC–MS quantification of intracellular accumulation, PAO1-Pore; details: 10-80 µM; for Concentration slopes of accumulation, PAO1-Pore_1 min: 1 min incubation; for Concentration slopes of accumulation, PAO1-Pore_40 min: 40 min incubation;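 on all read-outs here: slope of accumulation versus external concentration fitted as a line through zero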
Description: as §1, §2, §3, §4

P. aeruginosa PΔ3 cells = details: 10-80 µM; for Concentration slopes of accumulation, PΔ3_1 min: 1 min incubation; for Concentration slopes of accumulation, PΔ3_40 min: 40 min incubation;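 on all read-outs here: slope of accumulation versus external concentration fitted as a line through zero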
Description: as §1, §2, §3, §4

[2] = test system: P. aeruginosa PΔ3-Pore cells; experiment: LC–MS quantification of intracellular accumulation, PΔ3-Pore; details: 10-80 µM; for Concentration slopes of accumulation, PΔ3-Pore_1 min: 1 min incubation; for Concentration slopes of accumulation, PΔ3-Pore_40min: 40 min incubation;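 on all read-outs here: slope of accumulation versus external concentration fitted as a line through zero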
Description: as §1, §2, §3, §4

P. aeruginosa PAO1 = experiment: MIC by two-fold dilution, wild type PAO1; type: cell-based, Pseudomonas aeruginosa; details: Pseudomonas aeruginosa; PAO1, MOPS-M9 medium; read-out: MICs
Description: (§5) In all experiments, P. aeruginosa PAO1-Pore (PAO1 attTn7::PLAC-fhuA) and PΔ3-Pore (ΔmexAB ΔmexCD ΔmexXY attTn7::PLAC-fhuA) strains were used[29]. Strains were routinely grown in Luria–Bertani (LB) or MOPS-M9 medium at 37 °C with aeration. MICs shown in Tables 1 and 2 were determined by a two-fold dilution method in LB broth and MOPS-M9 medium, respectively, following the previously described protocol.

P. aeruginosa PAO1-Pore = experiment: MIC by two-fold dilution, hyperporinated PAO1-Pore; type: cell-based, Pseudomonas aeruginosa
Description: as §5

P. aeruginosa PΔ3-Pore = experiment: MIC by two-fold dilution, barrierless PΔ3-Pore; type: cell-based, Pseudomonas aeruginosa
Description: as §5

Structure (SMILES) | Concentration slopes of accumulation, PAO1_1 min (P. aeruginosa PAO1 cells) | Concentration slopes of accumulation, PAO1_40 min (P. aeruginosa PAO1 cells) | Concentration slopes of accumulation, PAO1-Pore_1 min [1] | Concentration slopes of accumulation, PAO1-Pore_40 min [1] | Concentration slopes of accumulation, PΔ3_1 min (P. aeruginosa PΔ3 cells) | Concentration slopes of accumulation, PΔ3_40 min (P. aeruginosa PΔ3 cells) | Concentration slopes of accumulation, PΔ3-Pore_1 min [2] | Concentration slopes of accumulation, PΔ3-Pore_40min [2] | MIC (P. aeruginosa PAO1) | MICs (P. aeruginosa PAO1-Pore; PAO1-Pore, LB broth, Table S2) | MIC (P. aeruginosa PAO1-Pore; Pseudomonas aeruginosa, PAO1, read-out: MICs) | MIC (P. aeruginosa PΔ3-Pore; Pseudomonas aeruginosa, read-out: MICs, P∆3-Pore, MOPS-M9 medium) [µg/mL] | MICs (P. aeruginosa PΔ3-Pore; P∆3-Pore, LB broth, Table S2)
CC(C)NCC(O)c1ccc(NS(C)(=O)=O)cc1 (stereo not shown) [OU-0032507, Sotalol HCl] | 4.31 | 4.58 | 8.24 | 3.55 | 3.77 | 2.90 | 15.87 | 9.07 | – | – | – | – | –
O=C1CC2(CCCC2)CC(=O)N1CCCCN1CCN(c2ncccn2)CC1 [OU-0000735, Buspirone HCl] | 6.08 | 7.21 | 7.76 | 7.56 | 6.98 | 6.60 | 9.57 | 9.56 | – | – | – | – | –
COc1ccc(CCN(C)CCCC(C#N)(c2ccc(OC)c(OC)c2)C(C)C)cc1OC (stereo not shown) [OU-0000734, Verapamil HCl] | 12.96 | 13.17 | 16.77 | 15.63 | 12.95 | 12.00 | 17.77 | 18.38 | – | – | – | – | –
COc1ccc2cc1Oc1ccc(cc1)C[C@H]1c3cc(c(OC)cc3CCN1C)Oc1c(OC)c(OC)cc3c1[C@H](C2)N(C)CC3 [OU-0032506, Tetrandrine] | 5.68 | 5.34 | 10.07 | 7.33 | 7.92 | 5.95 | 11.59 | 8.93 | – | – | – | – | –
COCCCC/C(=N\OCCN)c1ccc(C(F)(F)F)cc1 [OU-0000742, Fluvoxamine] | 3.55 | 4.45 | 6.04 | 6.15 | 4.15 | 4.97 | 6.28 | 6.18 | – | – | – | – | –
CCCC[C@H]1CNC(=O)[C@H](Cc2cc(F)cc(F)c2)N1 [OU-0032509] | – | – | 23.40 | 20.61 | 14.12 | 18.21 | 27.36 | 24.02 | – | – | – | – | –
CCn1cc(C(=O)O)c(=O)c2cc(F)c(N3CCN(C)CC3)cc21 [OU-0000619, PEFLOXACINE MESYLATE] | 14.50 | 14.54 | 25.74 | 33.41 | 21.54 | 34.80 | 32.20 | 39.09 | 2 µM and 0.9 µg/mL | 0.25 | 0.25 µM and 0.11 µg/mL | 0.03 | 0.0039
NC(N)=Nc1nc(CSCCC(N)=NS(N)(=O)=O)cs1 [OU-0000841, Famotidine] | 4.64 | 5.28 | 3.94 | 2.86 | 4.40 | 4.38 | 6.27 | 4.45 | – | – | – | – | –
CC[C@H]1CN2CCc3cc(OC)c(OC)cc3[C@@H]2C[C@@H]1C[C@H]1NCCc2cc(OC)c(OC)cc21.Cl.Cl [OU-0032504, Emetine DIHCl] | 0.61 | 0.65 | 1.29 | 1.17 | 1.07 | 0.76 | 1.71 | 1.61 | – | – | – | – | –
CC(Cc1ccc(O)cc1)NCC(O)c1cc(O)cc(O)c1 (stereo not shown) [OU-0000755, Fenoterol HBr] | 1.15 | 1.72 | 1.22 | 2.13 | 2.24 | 1.99 | 2.02 | 2.24 | – | – | – | – | –
O=C1NC[C@@H](CCC2CCCCC2)N[C@H]1Cc1cc(F)cc(F)c1 [OU-0032508] | – | – | 20.38 | 23.85 | 14.00 | 12.40 | 20.49 | 21.97 | – | – | – | – | –
CCOC(=O)NC(=S)Nc1ccccc1NC(=S)NC(=O)OCC [OU-0000837, Thiophanate] | 3.24 | 3.72 | 3.05 | 1.80 | 3.05 | 1.80 | 14.84 | 13.42 | – | – | – | – | –
CC(CCc1ccccc1)NCC(O)c1ccc(O)c(C(N)=O)c1 (stereo not shown) [OU-0000748, Labetalol HCl] | 15.94 | 14.89 | 21.98 | 21.99 | 17.87 | 22.85 | 23.35 | 22.27 | – | – | – | – | –
CNC(=C[N+](=O)[O-])NCCSCc1ccc(CN(C)C)o1 [OU-0000840, Ranitidine HCl] | 3.41 | 2.83 | 4.44 | 5.25 | 2.62 | 3.53 | 5.13 | 1.37 | – | – | – | – | –
CCN1CCCC1CNC(=O)c1cc(S(N)(=O)=O)ccc1OC.Cl (stereo not shown) [OU-0032505, Sulpiride HCl] | – | – | 7.04 | 7.90 | 6.18 | 6.27 | 7.14 | 7.60 | – | – | – | – | –
O=C(c1ccc(OCCN2CCCCC2)cc1)c1c(-c2ccc(O)cc2)sc2cc(O)ccc12 [OU-0000741, Raloxifene HCl] | 45.85 | 26.99 | 56.66 | 52.80 | 69.39 | 35.59 | 83.30 | 77.54 | – | – | – | – | –
